Results reported in PMC7383931, “Novel Thienopyrimidine Inhibitors of Leishmania N-Myristoyltransferase with On-Target Activity in Intracellular Amastigotes” (Journal of Medicinal Chemistry, 2020).
Where “and” joins values, the source holds several entries; their conditions need not be identical. Identical values can stand only once. Like-named read-outs stand apart in the source and are kept apart here.

Experiments:
LdNMT = LdNMT (Leishmania donovani, UniProt D0AB09); test: biochemical; conditions: 95% confidence interval in brackets
LdNMT, sequence (D0AB09 entry or part of it): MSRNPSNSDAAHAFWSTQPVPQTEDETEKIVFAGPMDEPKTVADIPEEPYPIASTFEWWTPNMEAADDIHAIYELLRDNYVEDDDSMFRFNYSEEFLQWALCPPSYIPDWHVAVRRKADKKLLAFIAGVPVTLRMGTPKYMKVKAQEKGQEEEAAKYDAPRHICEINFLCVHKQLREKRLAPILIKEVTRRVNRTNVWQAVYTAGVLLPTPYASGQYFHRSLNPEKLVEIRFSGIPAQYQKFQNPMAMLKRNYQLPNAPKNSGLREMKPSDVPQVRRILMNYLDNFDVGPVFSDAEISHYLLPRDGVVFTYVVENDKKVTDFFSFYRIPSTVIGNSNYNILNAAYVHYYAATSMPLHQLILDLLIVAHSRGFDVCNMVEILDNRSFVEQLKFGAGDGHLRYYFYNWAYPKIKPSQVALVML

[1] = test system: bone-marrow-derived macrophages (BMDM); test: Alamar blue-based assay, macrophage toxicity; type: cell-based, BALB/c mice; conditions: for BMDM TC50: toxicity against bone marrow derived macrophages; for Alamar Blue Assay nAUC: toxicity against bone-marrow-derived macrophages, normalized area under the curve
Method: . Due to the steep slope of the toxicity profile and the correspondingly low accuracy of the CC50 values, the normalized area under the curve (nAUC) was used as the toxicity parameter (Figure 6A). […].
Macrophages (BMDM) were differentiated from the bone marrow of 6–8 week old female BALB/c mice, as described previously,[37] and maintained at 37 °C and 5% CO2 in DMEM (GIBCO) supplemented with 4 mM L-glutamine (GIBCO) and 4% L929-cell-conditioned medium. BMDMs were seeded at 4.2 × 10^4 cells per well in 96-well plates and adhered for at least 4 h. Subsequently, inhibitor concentrations were added for 72 h, followed by the addition of a 1/10 volume Alamar blue (Trek Diagnostics). Fluorescence was measured after 6 h as described above.

[2] = test system: NMT (protein myristoylation) in L. donovani amastigotes; type: cell-based; conditions: in-gel fluorescence, varying inhibitor concentrations
L. donovani amastigotes = test: Alamar blue-based assay, L. donovani amastigotes; type: cell-based; conditions: Leishmania donovani
LmNMT = target: T1, LmNMT (Leishmania major, UniProt Q4Q5S8); test: CPM assay (fluorogenic NMT activity assay), LmNMT; type: biochemical; conditions: 95% confidence interval in brackets; read-out: CPM Assay, IC50 (CI95) LmNMT
T1 sequence (Q4Q5S8 1-421): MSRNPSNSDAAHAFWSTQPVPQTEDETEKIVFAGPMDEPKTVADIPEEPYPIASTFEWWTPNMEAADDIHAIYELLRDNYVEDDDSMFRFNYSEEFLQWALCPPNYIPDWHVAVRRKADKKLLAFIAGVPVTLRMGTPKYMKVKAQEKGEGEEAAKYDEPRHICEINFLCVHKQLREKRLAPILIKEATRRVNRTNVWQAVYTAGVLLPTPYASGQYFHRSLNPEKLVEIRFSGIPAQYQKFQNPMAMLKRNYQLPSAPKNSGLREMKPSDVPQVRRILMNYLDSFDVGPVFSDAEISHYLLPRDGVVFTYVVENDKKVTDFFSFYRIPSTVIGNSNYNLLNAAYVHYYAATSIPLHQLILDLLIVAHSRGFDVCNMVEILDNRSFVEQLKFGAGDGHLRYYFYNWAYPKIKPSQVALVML

[3] = test system: intracellular amastigotes; parameters: method as in PMID 30380837; conditions: cited from earlier work
HsNMTs = test system: HsNMTs; parameters: method as in PMID 30380837; conditions: versus Leishmania major (Lm) NMT; cited from earlier work

Compound	BMDM TC50 [1]	Alamar Blue Assay nAUC [1]	also measured
CN(C)CCCN(C)c1nc(N(C)CCC#N)c2sccc2n1 [Compound 2, 3-((2-((3-(Dimethylamino)propyl)(methyl)amino)thieno[3,2-d]pyrimidin-4-yl)(methyl)amino)propanenitrile]	–	–	IC50 (LdNMT; read-out: CPM Assay, IC50 (CI95) LdNMT): 0.59 µM
CN1CCC(N(C)c2nc(N3CCC[C@H]3CC#N)c3sccc3n2)CC1 [Compound 43, (S)-2-(1-(2-(Methyl(1-methylpiperidin-4-yl)amino)thieno[3,2-d]pyrimidin-4-yl)pyrrolidin-2-yl)acetonitrile]	>50 µM	1.08	–
CN1CCC(N(C)c2nc(N(C)CCC#N)c3sccc3n2)CC1 [Compound 1, 3-(Methyl(2-(methyl(1-methylpiperidin-4-yl)amino)thieno[3,2-d]pyrimidin-4-yl)amino)propanenitrile]	>100 µM	1.07	effect on myristoylation [2]: significantly decreased myristoylation in a dose-dependent manner
CN(C)CCCN(C)c1nc(N(C)CCC(N)=O)c2sccc2n1 [Compound 36]	>50 µM	–	–
CN1CCC(N(C)c2nc(N(C)CCC#N)c3ccccc3n2)CC1 [Compound 3, 3-(Methyl(2-(methyl(1-methylpiperidin-4-yl)amino)quinazolin-4-yl)amino)propanenitrile]	>100 µM	1.04	–
CN1CCC(N(C)c2nc(N(C)CCC#N)c3sc(C(C)(C)C)cc3n2)CC1 [Compound 50, 3-((6-(tert-Butyl)-2-(methyl(1-methylpiperidin-4-yl)amino)thieno[3,2-d]pyrimidin-4-yl)(methyl)amino)propanenitrile]	–	–	EC50 (L. donovani amastigotes; extracellular L. donovani amastigotes (Table S2), read-out: Ld Amastigotes EC50 (CI05)): 10.1 µM; EC50 (L. donovani amastigotes; intracellular L. donovani amastigotes, read-out: Alamar Blue Assay EC50 (CI95)): 10 µM
CN1CCC(N(CCCO)c2nc(N(C)CCC#N)c3ccccc3n2)CC1 [Compound 30, 3-((2-((3-Hydroxypropyl)(1-methylpiperidin-4-yl)amino)quinazolin-4-yl)(methyl)amino)propanenitrile]	–	–	IC50 (LmNMT): 19 µM and 18.8 µM
CN(C)CCCN(C)c1nc(N(C)CCC#N)c2cc(Br)ccc2n1 [Compound 56, 3-((6-Bromo-2-((3-(dimethylamino)propyl)(methyl)amino)quinazolin-4-yl)(methyl)amino)propanenitrile]	>40 µM	1.3 and 1.28	–
CN(CCC#N)c1nc(N(CCCO)C2CCNCC2)nc2ccccc12 [Compound 29, 3-((2-((3-Hydroxypropyl)(piperidin-4-yl)amino)quinazolin-4-yl)(methyl)amino)propanenitrile]	–	–	IC50 (LmNMT): 15 µM and 15.3 µM
COC[C@@H]1CCCN1c1nc(N(C)C2CCN(C)CC2)nc2ccsc12 [Compound 40, (S)-4-(2-(Methoxymethyl)pyrrolidin-1-yl)-N-methyl-N-(1-methylpiperidin-4-yl)thieno[3,2-d]pyrimidin-2-amine]	>40 µM	1.06	–
CCN(C)c1nc(N(C)C2CCN(C)CC2)nc2ccsc12 [Compound 46, N^4-Ethyl-N^2,N^4-dimethyl-N^2-(1-methylpiperidin-4-yl)thieno[3,2-d]pyrimidine-2,4-diamine]	>50 µM	1.05	–
CN(CCC#N)c1nc(N(C)C2CCNC2)nc2cc(C(C)(C)C)sc12 (stereo not shown) [Compound 53, 3-((6-(tert-Butyl)-2-(methyl(pyrrolidin-3-yl)amino)thieno[3,2-d]pyrimidin-4-yl)(methyl)amino)propanenitrile]	>40 µM	–	–
CN1CCC(N(C)c2nc(N(C)CCC#N)c3ccccc3n2)C1 (stereo not shown) [Compound 26, 3-(Methyl(2-(methyl(1-methylpyrrolidin-3-yl)amino)quinazolin-4-yl)amino)propanenitrile]	>50 µM	1.03	effect on myristoylation [2]: significantly decreased myristoylation in a dose-dependent manner
CN(C)CCCN(C)c1nc(N(C)CCC#N)c2sc(C(C)(C)C)cc2n1 [Compound 51, 3-((6-(tert-Butyl)-2-((3-(dimethylamino)propyl)(methyl)amino)thieno[3,2-d]pyrimidin-4-yl)(methyl)amino)propanenitrile]	27.3 (24.1-31.0) μM	–	–
Cc1nn(C)c(C)c1N(C(F)F)S(=O)(=O)c1c(Cl)cc(CCCC2CCN(C)CC2)cc1Cl [DDD100097]	–	–	EC50 [3]: 2.4 µM; selectivity over HsNMTs (HsNMTs): 10 fold
CCN(C)c1nc(N(C)C2CCNCC2)nc2ccsc12 [Compound 47, N^4-Ethyl-N^2,N^4-dimethyl-N^2-(piperidin-4-yl)thieno[3,2-d]pyrimidine-2,4-diamine]	>50 µM	–	–
CN(CCC#N)c1nc(N(C)C2CCNCC2)nc2ccccc12 [Compound 23, 3-(Methyl(2-(methyl(piperidin-4-yl)amino)quinazolin-4-yl)amino)propanenitrile]	>50 µM	–	–
CN(C)CCCN(C)c1nc(N(C)CCCO)c2sccc2n1 [Compound 35, 3-((2-((3-(Dimethylamino)propyl)(methyl)amino)thieno[3,2-d]pyrimidin-4-yl)(methyl)amino)propan-1-ol]	>50 µM	–	–
CN(CCC#N)c1nc(N(C)C2CCNCC2)nc2ccsc12 [Compound 10, 3-(Methyl(2-(methyl(piperidin-4-yl)amino)thieno[3,2-d]pyrimidin-4-yl)amino)propanenitrile]	>50 µM	1.05	–
CCN1CCC(N(C)c2nc(N(C)CCC#N)c3ccccc3n2)CC1 [Compound 24, 3-((2-((1-Ethylpiperidin-4-yl)(methyl)amino)quinazolin-4-yl)(methyl)amino)propanenitrile]	>50 µM	–	–
CCN1CCC(N(C)c2nc(N(C)CCC#N)c3sccc3n2)CC1 [Compound 12, 3-(Methyl(2-(methyl(1-ethylpiperidin-4-yl)amino)thieno[3,2-d]pyrimidin-4-yl)amino)propanenitrile]	>50 µM	1.05	–
CN(C)CCCN(C)c1nc(N2CCC[C@H]2CO)c2sccc2n1 [Compound 39, (S)-(1-(2-((3-(Dimethylamino)propyl)(methyl)amino)thieno[3,2-d]pyrimidin-4-yl)pyrrolidin-2-yl)methanol]	>50 µM	1.14	–
CN1CCC(N(C)c2nc(N(C)CCC#N)c3sc(C(C)(C)C)cc3n2)C1 (stereo not shown) [Compound 52, 3-((6-(tert-Butyl)-2-(methyl(1-methylpyrrolidin-3-yl)amino)thieno[3,2-d]pyrimidin-4-yl)(methyl)amino)propanenitrile]	>40 µM	–	–
CCN(C)c1nc(N(C)C2CCNCC2)nc2ccc(S(=O)(=O)Nc3c(C)nn(C)c3C)cc12 [Compound 65, 4-(Ethyl(methyl)amino)-2-(methyl(piperidin-4-yl)amino)-N-(1,3,5-trimethyl-1H-pyrazol-4-yl)quinazoline-6-sulfonamide]	–	–	IC50 (LdNMT; CPM Assay, IC50 (CI95) LdNMT): 0.33 µM
CN(C)CCCN(C)c1nc(N(C)CCC#N)c2ccccc2n1 [Compound 4, 3-((2-((3-(Dimethylamino)propyl)(methyl)amino)quinazolin-4-yl)(methyl)amino)propanenitrile]	>100 µM	1.17	–
